How the values were obtained:
[1] = from reference [17]; cited from earlier work
[2] = assay type: physicochemical; settings: extraction time varied 0-60 minutes; dihexyl ether; 900 rpm

SMILES	Therapeutic range [1] [ng/mL]	Extraction time for PALME system to enter equilibrium [2] [min]
CCOC(=O)C1(c2ccccc2)CCN(C)CC1 [Pethidine]	100 to 800	
CNCCC=C1c2ccccc2CCc2ccccc21 [Nortriptyline]		30
O=C(CCCN1CCC(O)(c2ccc(Cl)cc2)CC1)c1ccc(F)cc1 [Haloperidol]		15
CCC(=O)C(CC(C)N(C)C)(c1ccccc1)c1ccccc1 (centres unmarked) [Methadone]	100 to 500	15
